Laboratory results taken from ChEMBL document CHEMBL4715870, “Synthesis and Structure-Activity Relationship of Tetra-Substituted Cyclohexyl Diol Inhibitors of Proviral Insertion of Moloney Virus (PIM) Kinases” (J Med Chem, 2020).

Tests used:
physchem = details: buffer, pH 7.4
in vitro = details: human, Caco-2

**Q.** What does the source list for `C[C@H]1C[C@@H](c2ccncc2NC(=O)c2ccc(F)c(-c3c(F)cccc3F)n2)C[C@@H](O)[C@@H]1O`?
**A.** logD (physchem): 3; Papp A→B (in vitro): 28.8 ×10⁻⁶ cm/s

**Q.** With `C[C@@H]1C[C@H](N)C[C@H](c2ccncc2NC(=O)c2ccc(F)c(-c3c(F)cccc3F)n2)C1` [LGH-447] as the compound, how does the logD (physchem) read?
**A.** 1.9

**Q.** What about the Papp A→B (in vitro) of the same compound?
**A.** 8.5 ×10⁻⁶ cm/s
